# Values quoted from earlier work, collected in patent publication US20250032488A1, “METHODS OF TREATMENT USING LOU064” (NOVARTIS AG, priority 2021, published 2025).
# Values joined by “and” are separate entries in the source; they are usually repeats but may differ in a detail not shown here. Equal entries are not always repeated. Where two headings read alike, the source gives them in different places.
# Legend:
# [1] = 75 mg b.i.d., Phase II; cited from earlier work
# [2] = higher dose treatment arms, phase IIa; cited from earlier work
# [3] = human, in vivo; cited from earlier work
smiles,measurement,setting,value
C=CC(=O)N1CCC(CNc2ncnc(N)c2-c2ccc(Oc3ccccc3)cc2)CC1 [evobrutinib],Dose-limiting side effect,[1],dose-limiting liver enzyme elevations
C[C@H]1CN(C2COC2)CCN1c1ccc(Nc2cc(-c3ccnc(N4CCn5c(cc6c5CC(C)(C)C6)C4=O)c3CO)cn(C)c2=O)nc1 [fenebrutinib],Subjects with transient grade 3 elevations of ALT and/or AST,[2],8.3% and 6.3%
C=CC(=O)N1CCC[C@@H](n2c(=O)n(-c3ccc(Oc4ccccc4)cc3)c3c(N)nccc32)C1 [tolebrutinib],Dose-limiting side effect,[3],dose-limiting diarrhea
